Assay results taken from US12459997B2, “Compounds and methods targeting interleukin-19” (Eli Lilly and Company, priority 2018, dated 2025).

Legend:
Ps0 patients [1] = experiment: Ps0 study in anti-IL-17 treatment groups: serum IL-19 and PASI; assay type: in vivo, human; details: for number of patients achieving at least PASI 75: title: week 16, head: Week 2
Excerpt: (§1) According to an exemplified embodiment, a sandwich ELISA assay for the sensitive detection of IL-19 is provided herein. According to an exemplified embodiment, a first IL-19 antibody (selected from Table 1, 2 or 3) is utilized as an IL-19 capture antibody and a second IL-19 antibody (selected from Table 1, 2 or 3) is utilized as an IL-19 reporter antibody. […] According to some embodiments, one milligram of the first IL-19 antibody (the capture antibody) is biotinylated using Pierce biotinylation kit (Cat #) and one milligram of the second IL-19 antibody (the reporter antibody) is labeled with ruthenium using MesoScale Discovery (MSD) kit for electrochemiluminescent (ECL) detection. According to such embodiment, labeled antibodies are evaluated using MALDI-TOF to ensure suitable labeling, and then diluted in 50% glycerol and stored at −20° C. prior to use.
(§2) Streptavidin-coated 96-well MSD plates are washed three times with TBST (Tris buffered saline containing 10 mmol/L Tris pH 7.40, 150 mmol/L NaCl with 1 mL Tween 20/L) and then blocked with TBS-T plus 1% BSA for 1 hour at room temperature. Plates are again washed and wells are then incubated with biotinylated IL-19 capture antibody (1 mg/L) for 1 hour. Thereafter, plates are again washed prior to patient sample testing.
(§3) During patient sample testing, a standard curve is generated using 50 μL of recombinant human IL-19 control standard (serially diluted IL-19 recombinant protein ranging from 100-0.0001 ng/L, and including a zero blank, in assay buffer of 50 mmol/L HEPES, pH 7.40, 150 mmol/L NaCl, 10 mL/L Triton X-100, 5 mmol/L EDTA, and 5 mmol/L EGTA). […] Patient samples (which, according to the present invention, may include blood, serum or plasma) are diluted 1:4 in assay buffer and added to respective wells. The plate is incubated overnight at 4° C. Following incubation, wells are aspirated and washed 3 times with TBST. Thereafter, 50 μL of ruthenium-labeled IL-19 detection antibody (0.5 mg/L) is added to the wells for a 1-hour incubation at room temperature. Following incubation, wells are aspirated and washed 3 times with TBST. Thereafter, 150 μl of 2×MSD read buffer is added. Ruthenium electrochemiluminescence in the wells is detected using a MSD Sector 6000 plate reader. Data is analyzed and IL-19 MSD immunoassay calibration curve fitting is performed using MesoScale Discovery software. SAS® software version 9.4 (PROC MIXED) is used for assessing treatment effects on IL-19 levels using a mixed effects model with an unstructured covariance matrix and log10 transformed IL-19 concentrations (SAS. Version 9.4 for UNIX; SAS Institute Inc.: Cary, N.C., 2016). Statistical analysis is generated with the ggplot and pROC packages using R version 3.3.3 statistical computing environment (www.R-project.org, Vienna, Austria, 2017).
The study includes five treatment group doses of: 10 mg (n=24), 25 mg (n=23), 75 mg (n=26), or 150 mg (n=28) of ixekizumab or placebo (n=24). Administration of all treatment doses is subcutaneous, and doses are administered starting at week 0 and every 2 weeks thereafter up to week 16 (inclusive).

PsA patients = experiment: PsA study in anti-IL-17 treatment groups: serum IL-19 and PASI; assay type: in vivo, human; details: for IL-19 (geometric mean) serum levels: subcutaneous
Excerpt: as §1, §2, §3
A study of IL-19 levels, in serum of 309 PsA patients treated with a therapeutic antibody targeting IL-17, ixekizumab, is performed. The study includes three treatment groups: (i.) anti-IL-17 treatment group, administered ixekizumab 160 mg at baseline followed by an 80 mg dose administered every two weeks thereafter for 12 weeks (n=103); (ii.) anti-IL-17 treatment group, administered ixekizumab 160 mg at baseline followed by an 80 mg dose administered every four weeks thereafter for 12 weeks (n=107); or (iii.) placebo (n=105). Administration of all treatment doses is subcutaneous. […] Serum IL-19 concentration levels are presented in Table 21; week 4 and 12 PASI prognostic values showing correlations of IL-19 serum levels and PASI in patients (21 ng/L, indicates the upper limit of the normal range of IL-19 in healthy subjects) are presented in Tables 22 and 23, respectively.

Ps0 patients [2] = details: cited from earlier work
[3] = 10 mg subcutaneous every 2 weeks, week 16
[4] = 25 mg subcutaneous every 2 weeks, week 16
[5] = 75 mg subcutaneous every 2 weeks, week 16
[6] = 150 mg subcutaneous every 2 weeks, week 16
[7] = Q2W, IL-19 at week 4 and PASI at week 12
[8] = Q2W, IL-19 at week 12 and PASI at week 12
[9] = Q4W, IL-19 at week 4 and PASI at week 12
[10] = Q4W, IL-19 at week 12 and PASI at week 12

ixekizumab
IL-19 serum levels (geometric mean) (Ps0 patients [1]; 10 mg subcutaneous every 2 weeks, Week 0 (baseline)): 111.6 pg/mL
IL-19 serum levels (geometric mean) (Ps0 patients [1]; 10 mg subcutaneous every 2 weeks, Week 2): 45.3 pg/mL
number of patients achieving at least PASI 75 (Ps0 patients [1]; 10 mg subcutaneous every 2 weeks, n = 19): 5
% of patients with serum IL-19 concentration ≤ 21 pg/mL (Ps0 patients [1]; [3]): 42.1% (8/19)
% patients with serum IL-19 concentration ≤ 21 pg/mL achieving at least PASI 75 (Ps0 patients [1]; [3]): 62.5% (5/8)
% patients with serum IL-19 concentration ≤ 21 pg/mL not achieving at least PASI 75 (Ps0 patients [1]; [3]): 37.5% (3/8)^
IL-19 serum levels (geometric mean) (Ps0 patients [1]; [3]): 57.3 pg/mL
IL-19 serum levels (geometric mean) (Ps0 patients [1]; 25 mg subcutaneous every 2 weeks, Week 0 (baseline)): 89.0 pg/mL
IL-19 serum levels (geometric mean) (Ps0 patients [1]; 25 mg subcutaneous every 2 weeks, Week 2): 22.3 pg/mL
number of patients achieving at least PASI 75 (Ps0 patients [1]; 25 mg subcutaneous every 2 weeks, n = 20): 16
% of patients with serum IL-19 concentration ≤ 21 pg/mL (Ps0 patients [1]; [4]): 70% (14/20)
% patients with serum IL-19 concentration ≤ 21 pg/mL achieving at least PASI 75 (Ps0 patients [1]; [4]): 92.9% (13/14)
% patients with serum IL-19 concentration ≤ 21 pg/mL not achieving at least PASI 75 (Ps0 patients [1]; [4]): 7.1% (1/14)
IL-19 serum levels (geometric mean) (Ps0 patients [1]; [4]): 13.6 pg/mL
IL-19 serum levels (geometric mean) (Ps0 patients [1]; 75 mg subcutaneous every 2 weeks, Week 0 (baseline)): 86.7 pg/mL
IL-19 serum levels (geometric mean) (Ps0 patients [1]; 75 mg subcutaneous every 2 weeks, Week 2): 11.6 pg/mL
number of patients achieving at least PASI 75 (Ps0 patients [1]; 75 mg subcutaneous every 2 weeks, n = 24): 21
% of patients with serum IL-19 concentration ≤ 21 pg/mL (Ps0 patients [1]; [5]): 91.7% (22/24)^
% patients with serum IL-19 concentration ≤ 21 pg/mL achieving at least PASI 75 (Ps0 patients [1]; [5]): 86.4% (19/22)
% patients with serum IL-19 concentration ≤ 21 pg/mL not achieving at least PASI 75 (Ps0 patients [1]; [5]): 13.6% (3/22)
IL-19 serum levels (geometric mean) (Ps0 patients [1]; [5]): 9.4 pg/mL
IL-19 serum levels (geometric mean) (Ps0 patients [1]; 150 mg subcutaneous every 2 weeks, Week 0 (baseline)): 87.1 pg/mL
IL-19 serum levels (geometric mean) (Ps0 patients [1]; 150 mg subcutaneous every 2 weeks, Week 2): 13.9 pg/mL
number of patients achieving at least PASI 75 (Ps0 patients [1]; 150 mg subcutaneous every 2 weeks, n = 24): 22
% of patients with serum IL-19 concentration ≤ 21 pg/mL (Ps0 patients [1]; [6]): 92% (23/25)
% patients with serum IL-19 concentration ≤ 21 pg/mL achieving at least PASI 75 (Ps0 patients [1]; [6]): 95% (19/20)
% patients with serum IL-19 concentration ≤ 21 pg/mL not achieving at least PASI 75 (Ps0 patients [1]; [6]): 5% (1/20)
IL-19 serum levels (geometric mean) (Ps0 patients [1]; [6]): 11.9 pg/mL
IL-19 (geometric mean) serum levels (PsA patients; Q2W: 160 mg at baseline, then 80 mg every two weeks, Week 0 (baseline)): 23.0 pg/mL
IL-19 (geometric mean) serum levels (PsA patients; Q2W: 160 mg at baseline, then 80 mg every two weeks, Week 4): 6.0 pg/mL
IL-19 (geometric mean) serum levels (PsA patients; Q2W: 160 mg at baseline, then 80 mg every two weeks, Week 12): 6.1 pg/mL
% of patients with serum IL-19 concentration ≤ 21 pg/mL (PsA patients; Q2W, IL-19 at week 4): 97.5% (79/81)
% patients with serum IL-19 concentration ≤ 21 pg/mL achieving at least PASI 75 (PsA patients; [7]): 72.2% (57/79)
% patients with serum IL-19 concentration ≤ 21 pg/mL not achieving at least PASI 75 (PsA patients; [7]): 27.8% (22/79)
% of patients with serum IL-19 concentration ≤ 21 pg/mL (PsA patients; Q2W, IL-19 at week 12): 96.7% (87/90)
% patients with serum IL-19 concentration ≤ 21 pg/mL achieving at least PASI 75 (PsA patients; [8]): 73.1% (57/78)
% patients with serum IL-19 concentration ≤ 21 pg/mL not achieving at least PASI 75 (PsA patients; [8]): 26.9% (21/78)
IL-19 (geometric mean) serum levels (PsA patients; Q4W: 160 mg at baseline, then 80 mg every four weeks, Week 0 (baseline)): 31.3 pg/mL
IL-19 (geometric mean) serum levels (PsA patients; Q4W: 160 mg at baseline, then 80 mg every four weeks, Week 4): 7.6 pg/mL
IL-19 (geometric mean) serum levels (PsA patients; Q4W: 160 mg at baseline, then 80 mg every four weeks, Week 12): 7.3 pg/mL
% of patients with serum IL-19 concentration ≤ 21 pg/mL (PsA patients; Q4W, IL-19 at week 4): 90.8% (79/87)
% patients with serum IL-19 concentration ≤ 21 pg/mL achieving at least PASI 75 (PsA patients; [9]): 73.4% (58/79)
% patients with serum IL-19 concentration ≤ 21 pg/mL not achieving at least PASI 75 (PsA patients; [9]): 26.6% (21/79)
% of patients with serum IL-19 concentration ≤ 21 pg/mL (PsA patients; Q4W, IL-19 at week 12): 93.5% (87/93)
% patients with serum IL-19 concentration ≤ 21 pg/mL achieving at least PASI 75 (PsA patients; [10]): 74.1% (60/81)
% patients with serum IL-19 concentration ≤ 21 pg/mL not achieving at least PASI 75 (PsA patients; [10]): 25.9% (21/81)
change of serum IL-19 in words (PsA patients; both ixekizumab treatment groups, sustained over the 12 week treatment): lowering of IL-19 to near normal levels after 4 weeks
patients achieved a 75% reduction in PASI score (PASI 75) (Ps0 patients [2]): 90%
